Laboratory results reported in patent publication US7385051B2, “Fluorescent N2,N3-etheno-purine (2′-deoxy) riboside derivatives and uses thereof” (Bar-llan University, priority 2005, dated 2008).
Where “and” joins values, the source holds several entries; their conditions need not be identical. Equal entries are not always repeated. Entries after “also recorded” stand apart in the source; their conditions may differ. Where two headings read alike, the source gives them in different places. Each block holds one compound with its values, some of them ahead of it.

Tests used:
[1] = cited from earlier work
[2] = cited from earlier work; remark: listed apart in the source
[3] = pKa determination by pH-titration monitored by fluorescence spectroscopy; format: physicochemical
From the text: H-bonding pattern of N^2,N3-ε-A is dependent not only on tautomeric equilibria, but also on acid-base equilibria, namely, on protonation states. For analyzing the protonation state of N^2,N3-ε-A at physiological pH, we determined the pKa values of this system.
Specifically, we monitored the pH-titration of N^2,N3-E-A, 4, by fluorescence spectroscopy. 1×10^−5 M solutions of N^2,N3-ε-A-5′-mono-phosphate were titrated by HCl in the pH range of 1.5-7.0.

[4] = Emission (fluorescence) spectra and quantum yield, quinine sulfate as reference; format: physicochemical; set-up: Emission λmax: unit not given here; details: for Maximum emission (λmax) in water / Quantum yield (φ) in water: excitation at 290 nm (4), 330 nm (17); for φ290: 290 nm
Experimental: Emission spectra of compounds 4 and 23 were measured using an Aminco-Bowman series 2 Luminescence Spectrometer. Measurement conditions included: 740-750 V sensitivity, and a 4 or 2 nm slit in the emission spectra for aqueous or organic solutions, respectively. Emission spectra were corrected by the subtraction of the medium's emission spectrum. Spectra were determined in dilute HCl or NaOH solutions in the pH range of 1.6-12.3 or at pH 7. The concentration of the samples of 4 was of the order of 4.85×10^−5 M for aqueous and organic solutions and of 23 in the order of 5.04×10^−5 M for aqueous solutions. All organic solvents were freshly distilled prior to emission measurements. Measurements of the emission of the nucleoside analogue were conducted with subtraction of the solvent's emission. The quantum yield of each compound was calculated from the observed absorbance at 290 nm and the area of the fluorescence emission band. Quinine sulfate was used as reference compound assuming a quantum yield value of 0.55 (Andrew et al., 1988).

Fluorescence life-time = format: physicochemical
Experimental: Fluorescent emission is a random process, and the excited molecules emit photons within a certain time, usually of the order of ns. For N^2,N3-ε-A, 4, and N^2,N3-ε-2′-deoxy-A, 23, fluorescence life times of 2.26 and 2.1 ns, respectively, were measured. These life times are relatively long and are therefore more convenient for the fluorescence measurements.

[5] = Absorption spectra (UV-Visible) in aqueous solution at several pH values; format: physicochemical; set-up: Absorption λmax: unit not given here
Experimental: Absorption spectra of compounds 4 and 23 were measured using a Varian array-1E UV-Visible spectrometer. Spectra were determined in dilute HCl or NaOH solutions in the pH range of 1.6-12.3 or at pH 7.0. The concentration of the samples of 4 in aqueous solutions and in organic solvents was of the order of 4.85×10^−5 M and of 23 in aqueous solutions was of the order of 5.04×10^−5 M.

[6] = Stability under automated DNA synthesis conditions (TLC and MS); format: physicochemical
Experimental: In order for a compound to be used in automated DNA synthesis, it has to be able to withstand the conditions of the different reactions in the synthesis. For example, it has to be stable in the treatment with 28% ammonia for two hours at 60° C.

rat brain P2Y1-receptor = molecular target: T1, rat brain P2Y1-receptor (Rattus norvegicus, UniProt P49651); assay: Agonist-induced Ca2+ release in HEK 293 cells stably transfected with P2Y1-receptor; format: cell-based; details: HEK 293 cells with rat brain P2Y1-receptor
T1 construct: expressed in transfected cells
From the text: To examine the efficacy of analogues 30a,d in a functional assay, we tested them by the agonist-induced Ca^2+ release in HEK 293 cells stably transfected with rat brain P2Y1-receptor (FIG. 6) (Voehringer et al., 2000). […] However, a benzyl substitution at N^6 of 30a, as in analogue 30d, reduced the ligand's potency. […] EC50 value in the range of 10^−6 M.

[7] = 1×10^−5 M solutions of the 5′-mono-phosphate titrated by HCl, pH 1.5-7.0, listed as N^2,N3-ε-A
[8] = in DMF (εd 37.6), 4.85 × 10^−5 M
[9] = in DMSO (εd 47.6), 4.85 × 10^−5 M
[10] = in Dioxane (εd 2.2), 4.85 × 10^−5 M

T1 sequence (P49651 whole entry): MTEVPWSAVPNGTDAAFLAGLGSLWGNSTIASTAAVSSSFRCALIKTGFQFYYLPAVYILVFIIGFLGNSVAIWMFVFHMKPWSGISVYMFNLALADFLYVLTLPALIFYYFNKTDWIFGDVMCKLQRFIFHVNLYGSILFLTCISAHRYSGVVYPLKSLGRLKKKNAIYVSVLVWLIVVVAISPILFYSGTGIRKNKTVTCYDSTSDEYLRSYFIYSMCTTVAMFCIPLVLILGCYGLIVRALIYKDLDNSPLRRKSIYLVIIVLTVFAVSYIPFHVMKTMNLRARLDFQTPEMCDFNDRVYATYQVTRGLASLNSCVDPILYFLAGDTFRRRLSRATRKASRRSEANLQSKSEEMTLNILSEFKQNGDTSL

Compound: OC[C@H]1O[C@@H](n2cnc3c2ncn2ccnc32)[C@H](O)[C@@H]1O [Compound 1, N1,N^6-etheno-adenosine]
- Emission λmax ([1]; Secrist et al., 1972, Thomas and Leonard, 1976): 415 nm

Compound: O=c1nc2[nH]ccn2c2c1ncn2[C@@H]1O[C@H](CO)[C@@H](O)[C@H]1O [Compound 3, N^2,N3-etheno-guanosine]
- Maximum emission ([1]; excitation at 280 nm, Sattsangi et al., 1977): 410 nm
- Emission maximum in water ([1]; in water, Kusmierek et al., 1987): 410 nm
- pKa ([2]; literature (Glemarec et al., 1991 for the ε-G compounds)): 2.11
- pKa of N7 ([2]; literature value as quoted): 5.20

Compound: Nc1nc2nccn2c2c1ncn2C1OC(CO)C(O)C1O (centres unmarked) [Compound 4, N^2,N3-etheno-adenosine]
- pKa (first; assigned to the exocyclic amine) [3, 7]: 1.92
- pKa (second; attributed to N8) [3, 7]: 3.16
- pKa (third; N7, most basic nitrogen) [3, 7]: 6.09
- pKa (first; assigned to the exocyclic amine) ([3]; pH 1.5): 1.92±0.08
- pKa (second; attributed to N8) ([3]; pH 1.5): 3.16±0.24
- pKa (third; N7, most basic nitrogen) ([3]; pH 1.5): 6.09±0.16
- Non-protonated fraction at physiological pH ([3]; pH 7.4): 96%
- Fluorescence at acidic pH ([4]; acidic pH): significant fluorescence
- Emission λmax [4, 8]: 448
- φ (quantum yield) [4, 8]: 0.082
- Emission λmax [4, 9]: 458
- φ (quantum yield) [4, 9]: 0.085
- Emission λmax [4, 10]: 434
- φ (quantum yield) [4, 10]: 0.042
- Maximum emission (λmax) in water [4]: 420 nm
- Quantum yield (φ) in water [4]: 0.03
- Emission λmax ([4]; pH 1.6, 4.85 × 10−5 M): 396
- φ (quantum yield) ([4]; pH 1.6, 4.85 × 10−5 M): 0.021
- Emission λmax ([4]; pH 7.0, 4.85 × 10−5 M): 420
- φ (quantum yield) ([4]; pH 7.0, 4.85 × 10−5 M): 0.032
- Emission λmax ([4]; pH 12.3, 4.85 × 10−5 M): 420
- φ (quantum yield) ([4]; pH 12.3, 4.85 × 10−5 M): 0.031
- Fluorescence life time (Fluorescence life-time): 2.26 ns
- Absorption bands in water ([5]; in water): 234 nm and 274 nm
- Absorption coefficient of the band at 234 nm ([5]; in water, 234 nm): 12.6×10^3
- Absorption coefficient of the band at 274 nm ([5]; in water, 274 nm): 3.3×10^3
- Absorption λmax ([5]; pH 1.6, 4.85 × 10^−5 M): 224 and 268
- εd ([5]; pH 1.6, band at λmax 224): 6.17 × 10^3
- εd ([5]; pH 1.6, band at λmax 268): 14.22 × 10^3
- Absorption λmax ([5]; pH 7.0, 4.85 × 10^−5 M): 234 and 274
- εd ([5]; pH 7.0, band at λmax 234): 12.58 × 10^3
- εd ([5]; pH 7.0, band at λmax 274): 3.31 × 10^3
- Absorption λmax ([5]; pH 12.3, 4.85 × 10^−5 M): 234 and 276
- εd ([5]; pH 12.3, band at λmax 234): 13.89 × 10^3
- εd ([5]; pH 12.3, band at λmax 276): 3.69 × 10^3

Compound: O=c1c2ncn(C3O[C@H](CO)[C@@H](O)[C@H]3O)c2[nH]c2nccn12 (some centres unmarked) [Compound 5]
- Fluorescence ([1]; Sattsangi et al., 1977, Kusmierek et al., 1992): non-fluorescent

Compound: CSc1nc2nccn2c2c1ncn2C1OC(CO)C(O)C1O (centres unmarked) [Compound 17, N^2,N3-etheno-6-methylthio-purine riboside]
- Maximum emission (λmax) in water [4]: 520 nm and 518 nm
- Quantum yield (φ) in water [4]: 0.15
- Emission λmax ([4]; pH 1.6, 5.04 × 10^−5 M): 492 and 516
- φ (quantum yield) ([4]; pH 1.6, 5.04 × 10^−5 M): 0.037
- Emission λmax ([4]; pH 7.0, 5.04 × 10^−5 M): 494 and 518
- φ (quantum yield) ([4]; pH 7.0, 5.04 × 10^−5 M): 0.152
- Emission λmax ([4]; pH 12.3, 5.04 × 10^−5 M): 494 and 520
- φ (quantum yield) ([4]; pH 12.3, 5.04 × 10^−5 M): 0.067
- Absorption bands in water ([5]; in water): 227 nm and 247 nm and 307 nm and 345 nm
- Absorption λmax ([5]; pH 1.6, 5.04 × 10^−5 M): 227 and 243 and 301 and 331
- εd ([5]; pH 1.6, band at λmax 227): 16.52 × 10^3
- εd ([5]; pH 1.6, band at λmax 243): 13.57 × 10^3
- εd ([5]; pH 1.6, band at λmax 301): 7.39 × 10^3
- εd ([5]; pH 1.6, band at λmax 331): 7.13 × 10^3
- Absorption λmax ([5]; pH 7.0, 5.04 × 10^−5 M): 231 and 247 and 307 and 345
- εd ([5]; pH 7.0, band at λmax 231): 16.09 × 10^3
- εd ([5]; pH 7.0, band at λmax 247): 13.25 × 10^3
- εd ([5]; pH 7.0, band at λmax 307): 7.07 × 10^3
- εd ([5]; pH 7.0, band at λmax 345): 2.90 × 10^3
- Absorption λmax ([5]; pH 12.3, 5.04 × 10^−5 M): 233 and 307
- εd ([5]; pH 12.3, band at λmax 233): 19.29 × 10^3
- εd ([5]; pH 12.3, band at λmax 307): 5.95 × 10^3

Further lines, with some results ahead:

- φ290 ([4]; pH 7.0): 0.085
- Fluorescence life time (Fluorescence life-time): 2.1 ns
- Stability against 2% dichloroacetic acid ([6]; 2% dichloroacetic acid, 2 min): stable
- Stability in 28% ammonia ([6]; 28% ammonia, two hours at 60° C.): stable
- ε (238 nm) ([5]; pH 7.0): 4.67×10^3
- ε (308 nm) ([5]; pH 7.0): 1.23×10^3
Compound: Nc1nc2nccn2c2c1ncn2C1CC(O)C(CO)O1 (centres unmarked) [Compound 23]

- φ290 ([4]; pH 7.0): 0.07
- ε (238 nm) ([5]; pH 7.0): 4.12×10^3
- ε (308 nm) ([5]; pH 7.0): 1.02×10^3
Compound: Nc1c2ncn(C3CC(O)C(CO)O3)c2nc2nccn12 (centres unmarked) [Compound 25, N1,N^2-etheno-2′-deoxy-adenosine]

- EC50 (rat brain P2Y1-receptor; Ca^2+ release): ~1000 nM
Compound: O=P(O)(O)OP(=O)(O)OP(=O)(O)OCC1OC(n2cnc3c(NCc4ccccc4)nc4nccn4c32)C(O)C1O (centres unmarked) [Compound 30d, N^6-Benzyl-N^2,N3-ethenoadenosine-5′-triphosphate]
- Potency at P2Y1-R compared to ATP / 30a (rat brain P2Y1-receptor): reduction by one order of magnitude; also recorded: significant reduction of the affinities
